Results taken from patent US6784201B2, “Benzothiepines having activity as inhibitors of ileal bile acid transport and taurocholate uptake” (G.D. Searle & Company, priority 1994, dated 2004).
Read-outs that look alike come from different tables or passages of the source.

Experiments:
ACAT = experiment: Acyl-CoA; cholesterol acyl transferase (ACAT), hamster liver microsomes; type: biochemical; conditions: read-out: ACAT (liver) IC(50)
Experimental: Acyl-CoA; Cholesterol Acyl Transferase (ACAT)
Hamster liver and rat intestinal microsomes were prepared from tissue as described previously (Reference: (1980) J. Biol. Chem. 255, 9098) and used as a source of ACAT enzyme. The assay consisted of a 2.0 ml incubation containing 24 μM Oleoyl-CoA (0.05 μCi) in a 50 mM sodium phosphate, 2 mM DTT ph 7.4 buffer containing 0.25% BSA and 200 μg of microsomal protein. The assay was initiated by the addition of oleoyl-CoA. The reaction went for 5 min at 37° C. and was terminated by the addition of 8.0 ml of chloroform/methanol (2:1). […] The chloroform phase was taken to dryness and then spotted on a silica gel 60 TLC plate and developed in hexane/ethyl ether (9:1). The amount of cholesterol ester formed was determined by measuring the amount of radioactivity incorporated into the cholesterol oleate spot on the TLC plate with a Packard instaimager.

[1] = tested on: Rabbit Ileal brush border membranes; experiment: [3H]taurocholate uptake in rabbit brush border membrane vesicles (BBMV); type: biochemical; conditions: read-out: TC-uptake (BBMV) IC(50)
Experimental: [^3H]Taurocholate Uptake in Rabbit Brush Border Membrane Vesicles (BBMV)
Rabbit Ileal brush border membranes were prepared from frozen iheal mucosa by the calcium precipitation method describe by Malathi et al. (Reference: (1979) Biochimica Biophysica Acta, 554, 259). The method for measuring taurocholate was essentially as described by Kramer et al. (Reference: (1992) Biochimica Biophysica Acta, 1111, 93) except the assay volume was 200 μl instead of 100 μl.

[2] = tested on: Rat Ileal Uptake of [14C]-Taurocholate; experiment: In vivo assay of rat ileal uptake of [14C]-taurocholate into bile (ileal loop)
Experimental: In Vivo Assay of Compounds that Inhibit Rat Ileal Uptake of [^14C]-Taurocholate into Bile
(See “Metabolism of 3α,7β-dihydroxy-7α-methyl-5β-cholanoic acid and 3α,7β-dihydroxy-7α-methyl-5β-cholanoic acid in hamsters” in Biochimica et Biophysica Acta 833 (1985) 196-202 by Une et al.)
Male wistar rats (200-300 g) are anesthetized with inactin @100 mg/kg. Bile ducts are cannulated with a 10″ length of PE10 tubing. The small intestine is exposed and laid out on a gauze pad. A canulae (⅛″ luer lock, tapered female adapter) is inserted at 12 cm from the junction of the small intestine and the cecum. A slit is cut at 4 cm from this same junction (utilizing a 8 cm length of ileum). 20 ml of warm Dulbecco's phosphate buffered saline, pH 6.5 (PBS) is used to flush out the intestine segment. The distal opening is cannulated with a 20 cm length of silicone tubing (0.02″ I.D.×0.037″ O.D.). The proximal cannulae is hooked up to a peristaltic pump and the intestine is washed for 20 min with warm PBS at 0.25 ml/min. Temperature of the gut segment is monitored continuously. At the start of the experiment, 2.0 ml of control sample ([^14C]-taurocholate @ 0.05 mi/ml with 5 mM cold taurocholate) is loaded into the gut segment with a 3 ml syringe and bile sample collection is begun. Control sample is infused at a rate of 0.25 ml/min for 21 min. Bile samples fractions are collected every 3 minute for the first 27 minutes of the procedure. After the 21 min of sample infusion, the ileal loop is washed out with 20 ml of warm PBS (using a 30 ml syringe), and then the loop is washed out for 21 min with warm PBS at 0.25 ml/min. A second perfusion is initiated as described above but this with test compound being administered as well (21 min administration followed by 21 min of wash out) and bile sampled every 3 min for the first 27 min. If necessary, a third perfusion is performed as above that typically contains the control sample.

human IBAT = target: T1, human IBAT (Homo sapiens, UniProt Q12908); experiment: In vitro assay of IBAT-mediated uptake of [14C]-taurocholate (TC) in H14 cells; type: cell-based
T1 construct: expressed in transfected cells; host or cells: Baby hamster kidney (BHK) cells, clone H14
T1 sequence (Q12908 1-348): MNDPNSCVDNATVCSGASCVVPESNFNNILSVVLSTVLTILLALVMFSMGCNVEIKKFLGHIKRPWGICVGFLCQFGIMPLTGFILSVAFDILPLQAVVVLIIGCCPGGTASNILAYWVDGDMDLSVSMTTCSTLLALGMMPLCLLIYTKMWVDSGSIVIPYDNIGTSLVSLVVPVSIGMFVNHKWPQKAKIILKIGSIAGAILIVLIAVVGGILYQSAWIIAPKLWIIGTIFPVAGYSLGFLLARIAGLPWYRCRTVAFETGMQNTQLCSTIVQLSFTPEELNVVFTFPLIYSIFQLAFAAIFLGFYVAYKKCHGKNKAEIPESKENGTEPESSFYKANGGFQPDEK
Procedure, shortened: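 BHK cells stably expressing human IBAT (H14) were incubated 2 h at 37° C with compound and 3 μM final [14C]-taurocholate in DMEM (4.5 g/L glucose) plus 0.2% fatty acid-free BSA. After cold PBS washes, cell-associated radioactivity was measured by scintillation counting.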

H14 cells = experiment: In vitro assay of uptake of [14C]-alanine; type: cell-based, hamster; conditions: Mesocricetus auratus; 5 μM
Experimental: Baby hamster kidney cells (BHK) transfected with the cDNA of human IBAT (H14 cells) are seeded at 60,000 cells/well in 96 well Top-Count tissue culture plates for assays run within in 24 hours of seeding, 30,000 cells/well for assays run within 48 hours, and 10,000 cells/well for assays run within 72 hours.
On the day of assay, the cell monolayer is gently washed once with 100 μl assay buffer (Dulbecco's Modified Eagle's medium with 4.5 g/L glucose+0.2% (w/v) fatty acid free bovine serum albumin-(FAF)BSA). To each well 50 μl of a two-fold concentrate of test compound in assay buffer is added along with 50 μl of 6 μM [^14C]-taurocholate in assay buffer (final concentration of 3 μM [^14C]-taurocholate). The cell culture plates are incubated 2 hours at 37° C. prior to gently washing each well twice with 100 μl 4° C. Dulbecco's phosphate-buffered saline (PBS) containing 0.2% (w/v) (FAF)BSA. The wells are then gently washed once with 100 μl 4° C. PBS without (FAF)BSA. To each 200 μl of liquid scintillation counting fluid is added, the plates are heat sealed and shaken for 30 minutes at room temperature prior to measuring the amount of radioactivity in each well on a Packard Top-Count instrument.
In Vitro Assay of Compounds that Inhibit Uptake of [^14C3-Alanine
The alanine uptake assay is performed in an identical fashion to the taurocholate assay, with the exception that labeled alanine is substituted for the labeled taurocholate.

- IC50 (ACAT): 15000 nM
- IC50 [1]: 2000 nM
- EC50 ([2]; rat ileal loop, read-out: TC-uptake Ileal Loop EC(50)): 12000 nM
- IC50 (human IBAT; H14 cells, Table 5, read-out: IC50 uM (In vitro Taurocholate Cell Uptake)): 0.3 µM
- IC50 (human IBAT; Table 6, read-out: TC-uptake (H14 cells) IC(50)): 0.3 µM
Structure (SMILES): CCCC[C@]1(CC)CS(=O)(=O)c2ccc(NO)cc2[C@@H](c2ccccc2)[C@H]1O [Example 38, (3α,4β,5β) 3-Butyl-3-ethyl-4-hydroxy-7-hydroxyamino-5-phenyl-2,3,4,5-tetrahydrobenzothiepine-1,1-dioxide]
- activity at 100 µM ([2]; Rattus norvegicus, read-out: % of Control Transport of TC in Rat Ileum @ 0.1 mM): 20.6%
- inhibition at 5 µM (H14 cells): 11%
